The source of these data is ChEMBL document CHEMBL1148906, “Two pyranocoumarins from the seeds of Calophyllum polyanthum” (2004).

This assay concerns Human alphaherpesvirus 2. Briefly: Antiherpetic activity against HSV2 in african green monkey Vero cells assessed as inhibition of virus-induced cytopathic effect. It is filed as functional. To be noted: Human alphaherpesvirus 2, Vero.

Each structure is given as a SMILES string.

On to `CC(C)=CCc1c(O)c2c(c3c1OC(=O)C[C@H]3c1ccccc1)O[C@@H](C)[C@@H](C)C2=O` [CALOPOLYANOLIDE D], for which the 50% growth inhibitory concentration (GI50) was greater than 250 µg/mL.

In the case of `CC(C)=CCc1c(O)c2c(c3c1OC(=O)C[C@H]3c1ccccc1)O[C@@H](C)[C@H](C)C2=O` [CALOPOLYANOLIDES C], the GI50 is greater than 250 µg/mL.
